A short description of this data set: Comparative solubility tests in 50 mM acetate buffer pH 5.8. In kind it is physicochemical. The note with it: aqueous buffer. From the text:
COMPARATIVE SOLUBILITY TESTS

Molecules are shown by their SMILES. Counter-ions that a name gives are not always drawn.

In general, solubility refers to the dissolved amount per volume that the medium holds. On to `COc1cc(CN(CC(=O)O)CC(C)N(CC(=O)O)Cc2cc(OC)c(OC)c(OC)c2)cc(OC)c1OC` (centres unmarked) [Example 1, N,N'-bis-(3,4,5-trimethoxybenzyl)-2-methyl ethylenediamine diacetic acid], for which the solubility is more than 100 mg/mL.
The value for `COc1cc(CN(CCN(CC(=O)O)Cc2cc(OC)c(OC)c(OC)c2)CC(=O)O)cc(OC)c1OC` [N,N'-bis-(3,4,5-trimethoxybenzyl) ethylenediamine-N,N'-diacetic acid, 2 HCl] was less than 5 mg/mL.
